Values joined by “and” are separate entries in the source; they are usually repeats but may differ in a detail not shown here. Identical values can stand only once. Like-named read-outs stand apart in the source and are kept apart here.
Key:
APT2 [1] = target: T1, APT2 (Homo sapiens, UniProt O95372); experiment: APT2 enzymatic assay, resorufin acetate as fluorogenic substrate; assay type: biochemical; set-up: made in house; host or cells: E. coli BL21 (DE3)
APT1 [2] = target: T2, APT1 (Homo sapiens, UniProt O75608); experiment: APT1 enzymatic assay, resorufin acetate as fluorogenic substrate; assay type: biochemical
T2 construct: made in house; host or cells: E. coli BL21 (DE3)

[3] = 50 mg/kg daily injection
APT2 [4] = target: T1, APT2; experiment: Competitive in vitro ABPP with TAMRA-FP, cell lysate spiked with APT2; assay type: binding; set-up: made in house; host or cells: E. coli BL21 (DE3); details: for inhibition at 90 µM: inhibitor at 90 μM
APT1 [5] = target: T2, APT1; experiment: Competitive in vitro ABPP with TAMRA-FP, cell lysate spiked with APT1; assay type: binding; details: qualitative, FIG. 6C
STAT3 palmitoylation [6] = experiment: STAT3 palmitoylation in HEK 293T cells expressing STAT3 and DHHC7 (endogenous APT2); assay type: cell-based; details: 16-hour treatment; for palmitoylation signal of STAT3: 50 μM
off target proteins = experiment: TAMRA-FP ABPP in APT2 spiked cell lysate, other bands (off targets); assay type: binding; details: FIG. 8
DSS induced colitis = experiment: Dextran sodium sulfate (DSS) induced colitis model; assay type: in vivo, mice; details: for lengths of the colons compared to the control groups / colon length longer than the control group / colon length difference to control: 50 mg/kg intraperitoneal; for lengths of the colons compared to the control groups: 2.5% DSS, all groups; for body weight loss / colon length longer than the control group: female mice; for difference in body weight / colon length difference to control: male mice
APT2 [7] = target: T1, APT2; experiment: Gel filtration assay to identify covalent inhibitors (TAMRA-FP labeling); assay type: biochemical; set-up: expressed in transfected cells; host or cells: HEK 293T
HEK 293T cells = experiment: Cell viability of HEK 293T cells; details: at 50 mM (so in the source)
STAT3 palmitoylation [8] = experiment: STAT3 palmitoylation in HEK 293T cells transfected with STAT3, APT2 and DHHC7; assay type: cell-based; details: inhibitors at 25 μM for 16 hours
SMAD2 palmitoylation = SMAD2 palmitoylation in HEK 293T cells (Alk14 labeling, in-gel fluorescence); assay type: cell-based; details: inhibitors at 25 μM, 6 h
[9] = Example 3 (FIG. 4), 15 min pre-incubation, read-out: IC50 APT2
[10] = Table 1, resorufin acetate as the substrate, read-out: IC50 (μM) APT1
[11] = Table 2, class symbols, read-out: IC50 (μM) APT1
[12] = Table 1, resorufin acetate as the substrate, read-out: IC50 (μM) APT2
[13] = Table 2, class symbols, read-out: IC50 (μM) APT2
[14] = read-out: inhibition of TAMRA-FP fluorescent labeling of APT2
[15] = Example 3 (FIG. 4), 15 min pre-incubation

T1 sequence (O95372 whole entry): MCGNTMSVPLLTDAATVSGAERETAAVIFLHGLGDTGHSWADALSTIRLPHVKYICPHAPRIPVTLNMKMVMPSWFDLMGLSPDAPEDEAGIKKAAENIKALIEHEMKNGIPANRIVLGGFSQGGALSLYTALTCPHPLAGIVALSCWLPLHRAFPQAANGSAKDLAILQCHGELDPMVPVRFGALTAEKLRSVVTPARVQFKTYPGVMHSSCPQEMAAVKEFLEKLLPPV
T2 sequence (O75608 whole entry): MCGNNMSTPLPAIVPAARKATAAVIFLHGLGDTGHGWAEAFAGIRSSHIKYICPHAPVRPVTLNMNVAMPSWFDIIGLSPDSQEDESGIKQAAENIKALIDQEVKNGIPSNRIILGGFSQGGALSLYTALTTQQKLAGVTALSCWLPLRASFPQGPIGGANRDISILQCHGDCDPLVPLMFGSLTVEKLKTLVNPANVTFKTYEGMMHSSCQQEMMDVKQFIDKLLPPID

| SMILES | IC50 (APT1 [2]; [10]) [µM] | IC50 (APT1 [2]; [11]) [µM] | IC50 (APT2 [1]; [12]) [µM] | IC50 (APT2 [1]; [13]) [µM] | also measured |
| --- | --- | --- | --- | --- | --- |
| COc1ccc(N2CCN(C(=O)c3cc(B(O)O)cs3)CC2)cc1 [KW5192, (5-(4-(4-Methoxyphenyl)piperazine-1-carbonyl)thiophen-3-yl)boronic acid] |  |  |  |  | IC50 (APT2 [1]; [9]): 1.1 µM |
| CCCCCCOc1ccc(N2CCN(C(=O)c3cc4c(s3)-c3ccccc3S(=O)(=O)C4)CC2)cc1 [APT-MY2] | > 200 | > 40 | 2.03 | 1 to 40 |  |
| Cc1ccc(NC(=O)c2cc3c(s2)-c2ccccc2S(=O)(=O)C3)cc1 [APT-MY5, N-(p-tolyl)-4H-thieno[3,2-c]thiochromene-2-carboxamide 5,5-dioxide] | > 200 | > 40 | > 200 | > 40 |  |
| COc1ccc(N2CCN(C(=O)c3cc4cc(B(O)O)c5ccccc5c4s3)CC2)cc1 [KW5129, (2-(4-(4-Methoxyphenyl)piperazine-1-carbonyl)naphtho[1,2-b]thiophen-5-yl)boronic acid] |  |  |  |  | tolerability in mice [3]: well tolerated; inhibition at 90 µM (APT2 [4]; [14]): ~90%; inhibition of TAMRA-FP fluorescent labeling of APT2 (APT2 [4]; inhibitor at 270 μM): almost completely abolished; inhibition of APT1 in competitive ABPP (APT1 [5]): could also inhibit APT1; palmitoylated STAT3 (STAT3 palmitoylation [6]; 25 μM): significant increase; palmitoylation signal of STAT3 (STAT3 palmitoylation [6]): more potent; change of fluorescent intensity in bands other than APT2 (off target reaction) (off target proteins): only seen in the APT2 band; APT1 IC50 higher than APT2 IC50 (APT1 [2]; APT1 IC50 versus APT2 IC50): about 5.2 fold; IC50 (APT1 [2]; Example 3 (FIG. 4), 15 min pre-incubation, read-out: IC50 APT1): 0.41 µM; lengths of the colons compared to the control groups (DSS induced colitis): significant increase; body weight loss (DSS induced colitis): less severe; colon length longer than the control group (DSS induced colitis): 1.4 cm; difference in body weight (DSS induced colitis): no statistically significant difference; colon length difference to control (DSS induced colitis): ~0.5 cm; IC50 (APT2 [1]; [9]): 0.079 µM; more potent at inhibiting APT2 compared with ML349 (APT2 [1]; relative to ML349): ~9 times; mode of APT2 inhibition (covalent or non-covalent) (APT2 [7]; from gel filtration assay): non-covalent inhibitor; TAMRA-FP fluorescent labeling of APT2 after gel filtration (APT2 [7]; lysate treated with inhibitor, passed over size exclusion column): almost complete fluorescent labeling after just one gel filtration |
| CCCCCCOc1ccc(N2CCN(C(=O)c3cc4c(s3)-c3ccccc3S(=O)(=O)C4)CC2)cc1 [MY2, (5,5-dioxido-4H-thieno[3,2-c]thiochromen-2-yl) (4-(4-(hexyloxy)phenyl)piperazin-1-yl) methanone] |  |  |  |  | IC50 APT2 (APT2 [1]; [15]): did not improve the potency |
| COc1ccc(N2CCN(C(=O)c3cc4cc(O)c5ccccc5c4s3)CC2)cc1 [KW5130, (5-Hydroxynaphtho[1,2-b]thiophen-2-yl) (4-(4-methoxyphenyl)piperazin-1-yl) methanone] |  |  |  |  | IC50 (APT2 [1]; [9]): ~5 µM |
| CCCNC(=O)c1cc2c(s1)-c1ccccc1S(=O)(=O)C2 [APT-MY3, N-Propyl-4H-thieno[3,2-c]thiochromene-2-carboxamide 5,5-dioxide] | > 200 | > 40 | > 200 | > 40 |  |
| CCCOc1ccc(N2CCN(C(=O)c3cc4c(s3)-c3ccccc3S(=O)(=O)C4)CC2)cc1 [MY1, (5,5-Dioxido-4H-thieno[3,2-c]thiochromen-2-yl) (4-(4-propoxyphenyl)piperazin-1-yl) methanone] |  |  |  |  | IC50 APT2 (APT2 [1]; [15]): did not improve the potency |
| COc1ccc(N2CCN(C(=O)c3cc4cc(S(=O)(=O)F)c5ccccc5c4s3)CC2)cc1 [KW5191, 2-(4-(4-Methoxyphenyl)piperazine-1-carbonyl)naphtho[1,2-b]thiophene-5-sulfonyl fluoride] |  |  |  |  | IC50 (APT2 [1]; IC50 APT2): 1.8 µM |
| COc1ccc(N2CCN(C(=O)c3cc4cc(B(O)O)c5ccccc5c4s3)CC2)cc1 [KW05129] | 0.19 | 0.1 to 1 | 0.079 | < 0.1 | effect on cell viability (HEK 293T cells): no effect; STAT3 palmitoylation level (acylation normalized by STAT3 protein) (STAT3 palmitoylation [8]): slightly better than ML349; SMAD2 palmitoylation level (SMAD2 palmitoylation): slightly better than ML349; time-dependent inhibition of APT2 (APT2 [1]; pre-incubation 30 min versus standard): not observed; APT2 IC50 lower than that of ML349 (APT2 [1]; relative to ML349): 8.54 fold |
| COc1ccc(N2CCN(C(=O)c3ccc(-c4ccccc4B(O)O)s3)CC2)cc1 [KW5175, (2-(5-(4-(4-methoxyphenyl)piperazine-1-carbonyl)thiophen-2-yl)phenyl)boronic acid] |  |  |  |  | IC50 APT2 (APT2 [1]; [15]): much less potent |
| COc1ccc(N2CCN(C(=O)c3cc4cc(S(=O)(=O)F)c5ccccc5c4s3)CC2)cc1 [KW05191] |  |  |  |  | IC50 (APT2 [1]; IC50 (μM) APT2): 1.77 µM and 1 to 40 µM |
| CCCCCCN1CCN(C(=O)c2cc3c(s2)-c2ccccc2S(=O)(=O)C3)CC1 [APT-MY4, (5,5-dioxido-4H-thieno[3,2-c]thiochromen-2-yl) (4-hexylpiperazin-1-yl) methanone] | > 200 | > 40 | 3.99 | 1 to 40 |  |
| CCCOc1ccc(N2CCN(C(=O)c3cc4c(s3)-c3ccccc3S(=O)(=O)C4)CC2)cc1 [APT-MY1] | > 200 | > 40 | 0.836 | 0.1 to 1 |  |
| CCCCCCCCNC(=O)c1cc2c(s1)-c1ccccc1S(=O)(=O)C2 [APT-MY7, N-octyl-4H-thieno[3,2-c]thiochromene-2-carboxamide 5,5-dioxide] | > 200 | > 40 | > 200 | > 40 |  |
| CCCCCCCCc1ccc(NC(=O)c2cc3c(s2)-c2ccccc2S(=O)(=O)C3)cc1 [APT-MY6, N-(4-octylphenyl)-4H-thieno[3,2-c]thiochromene-2-carboxamide 5,5-dioxide] | > 200 | > 40 | > 200 | > 40 |  |
| COc1ccc(N2CCN(C(=O)c3cc4c(s3)-c3ccccc3[S+]([O-])C4)CC2)cc1 (centres unmarked) [APT-MY8] | > 200 | > 40 |  |  |  |

Second part, led by results:

| IC50 (APT1 [2]; [10]) [µM] | IC50 (APT1 [2]; [11]) [µM] | IC50 (APT2 [1]; [12]) [µM] | IC50 (APT2 [1]; [13]) [µM] | SMILES | also measured |
| --- | --- | --- | --- | --- | --- |
|  |  | > 200 | > 40 | O=C(CN1CCN(C(=O)c2ccco2)CC1)Nc1cc(C(F)(F)F)ccc1Cl [ML348, reference compound] |  |
|  |  | 16.1 | 1 to 40 | COc1ccc(N2CCN(C(=O)c3ccc(-c4ccccc4B(O)O)s3)CC2)cc1 [KW05175] |  |
|  |  | 1.06 | 1 to 40 | COc1ccc(N2CCN(C(=O)c3cc(B(O)O)cs3)CC2)cc1 [KW05192] |  |
| > 200 | > 40 | 0.675 | 0.1 to 1 | COc1ccc(N2CCN(C(=O)c3cc4c(s3)-c3ccccc3S(=O)(=O)C4)CC2)cc1 [ML349, reference compound] | effect on cell viability (HEK 293T cells): no effect; inhibition at 90 µM (APT2 [4]; [14]): ~70%; inhibition at 270 µM (APT2 [4]; inhibitor at 270 μM, read-out: inhibition of TAMRA-FP fluorescent labeling of APT2): ~70%; STAT3 palmitoylation level (acylation normalized by STAT3 protein) (STAT3 palmitoylation [8]): increase STAT3 palmitoylation levels; palmitoylation signal of STAT3 (STAT3 palmitoylation [6]): slightly increased; change of fluorescent intensity in bands other than APT2 (off target reaction) (off target proteins): only seen in the APT2 band; APT2 selectivity / inhibition of APT1 (APT1 [2]; qualitative, FIG. 4): selective for APT2; lengths of the colons compared to the control groups (DSS induced colitis): significant increase; body weight loss (DSS induced colitis): less severe; colon length longer than the control group (DSS induced colitis): 1.4 cm; difference in body weight (DSS induced colitis): no statistically significant difference; colon length difference to control (DSS induced colitis): ~0.5 cm |
